Results: patent publication US4033992A, “Novel compounds of the 11-deoxyprostaglandin E3, R3α, and F3β series” (priority 1975, dated 1977)

Legend:
[1] = system: bronchospasms elicited by intravenous injections of 5-hydroxytryptamine, histamine, or acetylchlorine; assay: Bronchodilator activity by the Konzett procedure; format: in vivo, guinea pigs; details: Cavia porcellus, three logarithmic cumulative intravenous doses
Procedure: Bronchodilator activity was determined in guinea pigs against bronchospasms elicited by intravenous injections of 5-hydroxytryptamine, histamine, or acetylchlorine by the Konzett procedure. [See J. Lulling, P. Lievens, F. El Sayed and J. Prignot, Arzneimittel-Forschung, 18,995 (1968).] This activity is expressed as an ED50 determined from the results obtained with three logarithmic cumulative intravenous doses.

ulcers = assay: Indomethacin-induced ulcer assay (anti-ulcer); format: in vivo, Rats; details: Indomethacin 20 mg./kg. s.c., score 0-4
Procedure: Another assay useful for determining potential anti-ulcer agents is carried out in the following manner.
Rats were starved for 48 hours (water was given as libitum). Indomethacin (20 mg./kg. of body weight) was administered by the subcutaneous route and one-half the dose of the test compound was administered by gavage at the same time. After three hours, the second half of the test compound was administered also by gavage. Five hours after the administration of Indomethacin the animals were decapitated and the stomachs removed. The stomachs were washed with distilled water, blotted on gauze, cut along the larger curvature, and the contents rinsed with distilled water. The stomachs were spread out, pinned on a cork and visualized under magnifying glass for ulcers. The critera for scoring of ulcers was as previously reported. [Abdel-Galil et al. Brit. J. Pharmac. Chemotherapy 33:1-14 (1968)].
1-- Petechial hemmorrhage or pin point ulcers
3-- Many ulcers, a few large
4-- Many ulcers, mainly large
Control animals treated with Indomethacin but not test compound consistently give scores of about 2.5-3.5. Control animals treated with neither Indomethacin nor test compound give scores of about 0.5-0.8. Compounds diminishing the control ulcer score by 0.5 unit or more are considered to be active

gastric acid secretion = assay: Gastric acid secretion inhibitory action, modified "Shay rat" procedure; format: in vivo, rats (male, CFE strain); details: 3 hours
Procedure: The novel compounds of the present invention (and those wherein R2 is hydroxy when X is keto and Y is ethylene) are effective inhibitors of gastric acid secretion and of ulcer development in experimental animals, and thus are potentially valuable as agents for the control of gastric acid secretion and of gastric erosion and as anti-ulcer agents. Gastric acid secretion inhibitory action was measured by the "Shay rat" procedure with some modifications as follows.
The rats (male, CFE strain) were starved for 48 hours (water was given ad libitum) to permit evacuation of stomach contents. On the morning of the experiment, under ether anesthesia, the abdominal region was shaved and a midline incision (1-1 1/2") was made with a scapel. With the help of a closed curved hemostate the duodenum was picked up. Upon getting the duodenum into view, fingers were used to pull the stomach through the opening, the stomach was then gently manipulated with fingers to rid the stomach of air and residual matter which were pushed through the pylorus. Two-5 inch sutures were drawn under the pyloric-duodenal juncture. A ligature, at the juncture, was formed with one of the threads. The second ligature was also formed but not tightened.
The test compound or the vehicle, usually 1 ml./100 g. body weight, were injected into the duodenum as close as possible to the first ligature. […]
The abdominal cavity was exposed by cutting with scissors and the esophagus close to the stomach was clamped off with a hemostat, the stomach was removed by cutting above the hemostat (the esophagus was cut) and between the two sutures. […] The supernatant was collected, volume measured and recorded, 2 drops of a phenolphthalein indicator (1% in 95% ethanol) were added and the solution was titrated with 0.02 N NaOH (or with 0.04 N NaOH when large volumes of stomach contents were encountered) to pH 8.4 (because of usual coloring of the stomach contents, phenolphthalein was only used to permit visual indication that the end point was near) and the amount of acid present was calculated. […]

[2] = intraduodenal dose 50 mg./kg. of body weight

Row | Compound | ED50 ([1]; spasmogenic agent 5-hydroxytryptamine) [µg/kg] | ED50 ([1]; spasmogenic agent acetylcholine) [µg/kg] | ED50 ([1]; spasmogenic agent histamine) [µg/kg] | Score, Treated Animals (ulcer score) (ulcers; total oral dose 12.5 mg./kg. of body weight, Controls 2.7) | Percent Inhibition (gastric acid secretion) (gastric acid secretion; intraduodenal dose 12.5 mg./kg. of body weight) [%] | Percent Inhibition (gastric acid secretion) (gastric acid secretion; [2]) [%] | Score, Treated Animals (ulcer score) (ulcers; total oral dose 50 mg./kg. of body weight, Controls 2.8)
1 | CCCCC[C@H](O)/C=C/[C@H]1CCC(=O)[C@@H]1C/C=C\CCCC(=O)O [l-11-deoxyprostaglandin E2, 11-deoxyprostaglandin E2] | 5.2 | 10 | 5.2 | 1.2 | 42 | 97 | 
2 | CCCCC[C@H](O)/C=C/[C@H]1CC[C@H](O)[C@@H]1C/C=C\CCCC(=O)O [l-11-deoxyprostaglandin F2 α, 11-deoxyprostaglandin F2 α] |  |  |  |  |  | 98 | 1.3
